Measurements taken from US20230416196A1, “DIMER OF BIGUANIDINES AND THEIR THERAPEUTIC USES” (INSTITUT CURIE, priority 2020, published 2023).

What was measured:
[1] = test system: biopsy-derived organoids of PDAC; experiment: Chemograms on biopsy-derived organoids of pancreatic ductal adenocarcinoma; format: cell-based, human; settings: 72 h, CellTiter-Glo 3D; FIG. 9
Text: Biopsy-derived pancreatic organoid (BDPO) generation. BDPOs were obtained from endoscopic ultrasound-guided fine-needle aspirations (EUS-FNA) from patients with PDAC included under the PaCaOmics clinical trial (ClinicalTrials.gov: NCT01692873) after approval by the Paoli-Calmettes hospital ethics committee and following patient informed consent. Cultures were established as previously described. Briefly, PDAC biopsies were slightly digested with the Tumor Dissociation Kit (Miltenyi Biotec) at 37° C. for 5 minutes. The pancreatic tissue slurry was transferred into a tissue strainer 100 μm and was placed into 12-well plates coated with 150 μL GFR matrigel (Corning, Boulogne-Billancourt, France). […]
Chemograms on BDPO. […] 24 hours later, one plate was used directly for RNA preparation (Time 0 transcriptome) and on the other the medium was supplemented with increasing concentrations of each drug, 72 hours later cell viability was measured with CellTiter-Glo 3D (Promega) reagent quantified using the plate reader Tristar LB941 (Berthold Technologies). Values were normalized and expressed as the percentage of the control (vehicle), which represents 100% of normalized fluorescence. […]

[2] = test system: EMT induction (E-cadherin, Fibronectin, Slug); experiment: Western blot of epithelial and mesenchymal markers upon EMT induction; format: cell-based; settings: TGF-β or OSM; FIG. 8D
Experimental: (§1) Cell culture. MCF7 (ATCC) cells, DU-145 (ATCC) cells and FC1245 cells were cultured in Dulbecco's Modified Eagle Medium GlutaMAX (DMEM, ThermoFisher Scientific, 61965059) supplemented with 10% Fetal Bovine Serum (FBS, Gibco, 10270-106) and Penicillin-Streptomycin mixture (BioWhittaker/Lonza, DE17-602E) unless stated otherwise. Primary lung circulating tumor cells (Celprogen, 36107-34CTC, Lot 219411) were grown using stem cell complete media (Celprogen, M36102-29PS) until the third passage. Circulating cancer cells were grown in stem cell ECM T75-flasks (Celprogen, E36102-29-T75) and ECM 6-well plates (Celprogen, E36102-29-6Well). […]
Western Blotting. […] Proteins were solubilized in 2× Laemmli buffer containing benzonase (VWR, 70664-3, 1:100), extracts were incubated at 37° C. for 1 h, and quantified using a NanoDrop 2000 spectrophotometer (ThermoFisher Scientific). […] Antigens were detected using the SuperSignal West Pico PLUS chemiluminescent detection kits (ThermoFisher Scientific, 34580 and 34096). Signals were recorded using a Fusion Solo S Imaging System (Vilber) and quantified as indicated using ImageJ. […]

[3] = test system: MCF7, FC1242 and DU-145 cells; experiment: Cell viability in epithelial versus mesenchymal state (TGF-β or OSM induced EMT); format: cell-based, human, mouse; settings: EMT induced with TGF-β or OSM; FIG. 7
Experimental: Cell viability assay (IC50). Cell viability assay was carried out by plating 1000 cells/well in 96-well plates. Cells were treated for 72 h in a range between to 25 nM and […] using serial dilutions. The inventors followed the manufacturer's protocol. In brief, CellTiter-Blue® reagent (G8081, Promega) was added after 72 h treatment and cells were incubated for 3 h before recording fluorescence intensities (λex. 560/20 nm; λem. 590/10 nm) using a Perkin Elmer Wallac 1420 Victor2 Microplate Reader.
as §1

`N=C(N)NC(=N)NCCCCCCCCCCCCNC(=N)NC(=N)N` [LCC-12, lipophilic copper clamp C12] was tested, and the “efficacy (IC50) on biopsy-derived organoids of PDAC” value [1] was “low micromolar range”, the “EMT induction (E-cadherin, Fibronectin, Slug levels)” value [2] was “antagonized EMT induction” and the “IC50-values in mesenchymal state compared to epithelial counterpart” value [3] was “lower IC50-values in cells in the mesenchymal state compared to the epithelial counterpart”.
